Where two headings read alike, the source gives them in different places.
Legend:
human Th17 cells = experiment: Cytokine response by in vitro-polarized human Th17 cells stimulated with PMA/ionomycin; assay type: cell-based; settings: 10 μM compound, PMA/ionomycin 20 h
Method: In vitro differentiation of human Th17 cells: Human CD4+ T cells (isolated as described in protocol A) were polarized into Th17 cells as follows: Tissue culture-treated 100 mm plates (Corning, Corning, N.Y.) were coated with 10 μg/ml anti-human CD3 clone OKT3 antibody overnight at 4° C. Polarization was initiated by seeding approximately 2-3 e7 human CD4+ T cells onto the anti-CD3 plates in Polarization media consisting of: RPMI 1640 medium (Lonza, Allendale, N.J.) supplemented with 10% (v/v) charcoal-dextran treated, heat inactivated FBS (Omega Scientific, Tarzana, Calif.), 0.05 mM 2-Mercaptoethanol (Sigma-Aldrich, St. Louis, Mo.), and 1×Pen/Strep Amphotericin B (Lonza), with added recombinant human IL-23 (40 ng/ml) and anti-CD28 clone CD28.2 antibody (2 μg/ml); all recombinant human cytokines and anti-human neutralizing antibodies were purchased from eBioscience (San Diego, Calif.). Cells were incubated in the above Polarization media for 3 days at 37° C. in a humidified atmosphere at 5% CO2. After 3 days, the Polarization media was replaced with Maintenance media, consisting of RPMI 1640/FBS/2-Mercaptoethanol/Pen/Strep Amphotericin B supplemented with recombinant human IL-23 (40 ng/ml) alone, and the cells were re-plated onto regular tissue-culture-treated plates (not anti-CD3 coated). Cells were incubated in the Maintenance media for an additional 3 days at 37° C. in a humidified atmosphere at 5% CO2.
Inhibition of PMA/ionomycin-stimulated cytokine response by in vitro-differentiated human Th17 cells: Human Th17 cells, generated as described above, were seeded at 2e6 cells/ml in RPMI 1640 containing 10% (v/v) charcoal-dextran treated, heat inactivated FBS (Omega Scientific, Tarzana, Calif.), 0.05 mM 2-Mercaptoethanol (Sigma-Aldrich, St. Louis, Mo.), and 1×Pen/Strep Amphotericin B (Lonza, Allendale, N.J.). Cells were pre-treated with test compounds (10 μM) for 1 h at 37° C. in a humidified atmosphere at 5% CO2. Cells were then stimulated with 50 ng/ml phorbol 12-myristate 13-acetate (PMA) (Sigma-Aldrich, St. Louis, Mo.)+1 μg/ml ionomycin (Life Technologies, Grand Island, N.Y.) for 20 h at 37° C. in a humidified atmosphere at 5% CO2. Supernatant was collected and analyzed using Bio-Plex Pro Human Th17 Cytokine 15-Plex Panel (Bio-Rad Laboratories, Hercules, Calif.) as per manufacturer's protocols. Magnetic beads were read on the Bio-Plex MAGPIX multiplex reader instrument using the accompanying xPONENT 4.2 acquisition software (Bio-Rad Laboratories). Data were analyzed via the Bio-Plex Manager software v6.1 (Bio-Rad Laboratories). Cytokine secretion levels from Th17 cells treated with 0.1% DMSO+Stimulation were normalized to 100%.
IL-1β, IL-25, and IL-33 were below the limit of detection under conditions used. The concentrations of the observed analytes from top to bottom, as listed, are as follows: 8899, 567, 174, 99, 10380, 511, 239, 548, 81, 966, 504, and 76223 pg/ml.

[1] = system: immortalized normal human bronchial epithelial BEAS-2B cells; experiment: IL-17A- or IL-17F-mediated cytokine response by BEAS-2B cells; assay type: cell-based; settings: 48 h
Method: The virally immortalized, normal human bronchial epithelial cell line BEAS-2B was purchased from ATCC (Manassas, Va.). Primary bronchial epithelial cells isolated from a patient diagnosed with asthma were obtained from Lonza (Allendale, N.J.). Both cells were maintained in complete Bronchial Epithelial Cell Growth Medium (BEGM) (Lonza). Cells were seeded at 1e5 cells/ml and incubated at 37° C. in a humidified atmosphere at 5% CO2 overnight to adhere. Cells were pre-treated with test compounds (10 μM down by ⅕ in a 3- or 4-point serial dilution series) for 1 h at 37° C. in a humidified atmosphere at 5% CO2. DMSO at a final concentration of 0.1% served as the non-inhibited control. Budesonide (Selleck Chemicals, Houston, Tex.), a clinically approved glucocorticoid steroid for the treatment of asthma, was tested as a positive control at 0.25 μM. Cells were stimulated with 50 ng/ml of either human recombinant IL-17A or IL-17F (eBioscience, San Diego, Calif.), for 48 h. Supernatant was then collected and analyzed for cytokine concentrations using the Bio-Plex Pro Human Cytokine 17-Plex Panel (Bio-Rad Laboratories, Hercules, Calif.) according to the manufacturer's instructions. Magnetic beads were measured on the Bio-Plex MAGPIX multiplex reader instrument using the accompanying xPONENT 4.2 acquisition software (Bio-Rad Laboratories). Data were analyzed via the Bio-Plex Manager software v6.1 (Bio-Rad Laboratories). For the primary asthmatic bronchial epithelial cells, five (+IL-17F) to thirteen (+IL-17A) cytokines were in range of detection under the conditions used. […] Select cytokines were analyzed for comparison using the BEAS-2B cell line.

[2] = read-out: Percent inhibition of IFNγ (relative to DMSO control)
[3] = read-out: Percent inhibition of IL-4 (relative to DMSO control)
[4] = read-out: Percent inhibition of IL-6 (relative to DMSO control)
[5] = read-out: Percent inhibition of IL-10 (relative to DMSO control)
[6] = read-out: Percent inhibition of IL-17A (relative to DMSO control)
[7] = read-out: Percent inhibition of IL-17F (relative to DMSO control)
[8] = read-out: Percent inhibition of IL-21 (relative to DMSO control)
[9] = read-out: Percent inhibition of IL-22 (relative to DMSO control)
[10] = read-out: Percent inhibition of IL-23 (relative to DMSO control)
[11] = read-out: Percent inhibition of IL-31 (relative to DMSO control)
[12] = read-out: Percent inhibition of TNFα (relative to DMSO control)
[13] = read-out: Percent inhibition of sCD40L (relative to DMSO control)
[14] = +50 ng/ml IL-17A, read-out: EC50 values (μM), IL-6
[15] = +50 ng/ml IL-17A, read-out: EC50 values (μM), IL-8
[16] = +50 ng/ml IL-17F, read-out: EC50 values (μM), IL-6
[17] = +50 ng/ml IL-17F, read-out: EC50 values (μM), IL-8

| SMILES | inhibition at 10 µM (human Th17 cells; [2]) [%] | inhibition at 10 µM (human Th17 cells; [3]) [%] | inhibition at 10 µM (human Th17 cells; [4]) [%] | inhibition at 10 µM (human Th17 cells; [5]) [%] | inhibition at 10 µM (human Th17 cells; [6]) [%] | inhibition at 10 µM (human Th17 cells; [7]) [%] | inhibition at 10 µM (human Th17 cells; [8]) [%] | inhibition at 10 µM (human Th17 cells; [9]) [%] | inhibition at 10 µM (human Th17 cells; [10]) [%] | inhibition at 10 µM (human Th17 cells; [11]) [%] | inhibition at 10 µM (human Th17 cells; [12]) [%] | inhibition at 10 µM (human Th17 cells; [13]) [%] | EC50 [1, 14] [µM] | EC50 [1, 15] [µM] | EC50 [1, 16] [µM] | EC50 [1, 17] [µM] |
| --- | --- | --- | --- | --- | --- | --- | --- | --- | --- | --- | --- | --- | --- | --- | --- | --- |
| CCOc1cc(C(=O)N2CCC(N3CCN(C)CC3)CC2)ccc1Nc1cc2c(cn1)N(C)C(=O)c1occc1N2C [Compound 65] | -0.6 | 4.6 | 87.3 | 78.6 | 13.9 | 39.7 | 0.8 | 61.7 | -79.4 | -3.2 | 11.3 | 31.6 | – | – | – | – |
| CCOc1cc(C(=O)NCC2CC2)ccc1Nc1cc2c(cn1)N(C)C(=O)c1ccccc1N2C [Compound 57] | 17.4 | -11.8 | 93.1 | 80 | 49.5 | 67.4 | 28.6 | 76.8 | 29.8 | 3 | 5.6 | 32.3 | – | – | – | – |
| CCOc1cc(C(=O)N2CCC(N3CCCC3)CC2)ccc1Nc1cc2c(cn1)N(C)C(=O)c1ccccc1N2C [Compound 46, 3-(2-Ethoxy-4-(4-(pyrrolidin-1-yl)piperidine-1-carbonyl)phenylamino)-5,11-dimethyl-5H-benzo[e]pyrido[3,4-b][1,4]diazepin-10(11H)-one] | 11.9 | -2.8 | 90.6 | 79.7 | 56.6 | 81.8 | -6.1 | 74 | -58.8 | -3 | 22 | 36.3 | 0.51 | 0.4 | 0.38 | 0.32 |
| CCOc1cc(C(=O)N2CC[C@@H](N(C)C)C2)ccc1Nc1cc2c(cn1)N(C)C(=O)c1ccccc1N2C [Compound 115] | 18.4 | 1.5 | 92.5 | 80.1 | 68.3 | 83.5 | -86.1 | 75.7 | -30.7 | 3.4 | 57.1 | 53.7 | 0.21 | 0.42 | 0.14 | 0.13 |
| CCOc1cc(C(=O)N2CCNCC2)ccc1Nc1cc2c(cn1)N(C)C(=O)c1ccccc1N2C [Compound 62] | 11.7 | -17 | 87.8 | 80.3 | 27.7 | 60 | 2.5 | 66.2 | 15.8 | -1.4 | -10.4 | 31.9 | – | – | – | – |
| CCOc1cc(C(=O)N2CCC(N3CCN(C)CC3)CC2)ccc1Nc1cc2c(cn1)N(C)C(=O)c1ccccc1N2C [Compound 61] | 7.6 | -19.5 | 91.4 | 78.6 | 37.5 | 80.9 | 22.4 | 65.8 | -2.8 | -1.1 | -6.3 | 19 | 0.68 | 0.42 | 0.42 | 0.51 |

— patent publication US20170008888A1 (KYORIN PHARMACEUTICAL CO., LTD., priority 2014, published 2017)
